From patent US9073858B2, “Methods of targeted drug development” (priority 2010, dated 2015)
Read-outs that look alike come from different tables or passages of the source.

Experiments:
[1] = test system: epithelial carcinoma A431 cell line; assay: MTT Cell Proliferation Assay, A431 cell line; format: cell-based; conditions: for MTT-72 h A431/MDBK (ratio) / MTT (10 Point follow-up) ratio: value in brackets; for MTT-72 h A431/MDBK (ratio): numerically MDBK value over A431 value; for IC50: Homo sapiens; for MTT (10 Point follow-up) ratio: numerically MDBK over A431; for MTT-72 h % Max: maximal effect printed after the ratio
Outline: (§1)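 Cells plated overnight, then exposed 3 days at 37 °C, 5% CO2 to compound in growth medium with 0.5% FBS and 0.5% DMSO final (0.5% DMSO as control).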

EGFR = target: T1, EGFR (Homo sapiens, UniProt P00533); assay: EGFR in-cell Western (ICW) screening protocol; format: cell-based; set-up: unit not given here; conditions: for ICW Screen: initial screen
T1 construct: endogenous in cells; host or cells: A431 cells (ATCC CRL-1555)
T1 sequence (P00533 25-1210): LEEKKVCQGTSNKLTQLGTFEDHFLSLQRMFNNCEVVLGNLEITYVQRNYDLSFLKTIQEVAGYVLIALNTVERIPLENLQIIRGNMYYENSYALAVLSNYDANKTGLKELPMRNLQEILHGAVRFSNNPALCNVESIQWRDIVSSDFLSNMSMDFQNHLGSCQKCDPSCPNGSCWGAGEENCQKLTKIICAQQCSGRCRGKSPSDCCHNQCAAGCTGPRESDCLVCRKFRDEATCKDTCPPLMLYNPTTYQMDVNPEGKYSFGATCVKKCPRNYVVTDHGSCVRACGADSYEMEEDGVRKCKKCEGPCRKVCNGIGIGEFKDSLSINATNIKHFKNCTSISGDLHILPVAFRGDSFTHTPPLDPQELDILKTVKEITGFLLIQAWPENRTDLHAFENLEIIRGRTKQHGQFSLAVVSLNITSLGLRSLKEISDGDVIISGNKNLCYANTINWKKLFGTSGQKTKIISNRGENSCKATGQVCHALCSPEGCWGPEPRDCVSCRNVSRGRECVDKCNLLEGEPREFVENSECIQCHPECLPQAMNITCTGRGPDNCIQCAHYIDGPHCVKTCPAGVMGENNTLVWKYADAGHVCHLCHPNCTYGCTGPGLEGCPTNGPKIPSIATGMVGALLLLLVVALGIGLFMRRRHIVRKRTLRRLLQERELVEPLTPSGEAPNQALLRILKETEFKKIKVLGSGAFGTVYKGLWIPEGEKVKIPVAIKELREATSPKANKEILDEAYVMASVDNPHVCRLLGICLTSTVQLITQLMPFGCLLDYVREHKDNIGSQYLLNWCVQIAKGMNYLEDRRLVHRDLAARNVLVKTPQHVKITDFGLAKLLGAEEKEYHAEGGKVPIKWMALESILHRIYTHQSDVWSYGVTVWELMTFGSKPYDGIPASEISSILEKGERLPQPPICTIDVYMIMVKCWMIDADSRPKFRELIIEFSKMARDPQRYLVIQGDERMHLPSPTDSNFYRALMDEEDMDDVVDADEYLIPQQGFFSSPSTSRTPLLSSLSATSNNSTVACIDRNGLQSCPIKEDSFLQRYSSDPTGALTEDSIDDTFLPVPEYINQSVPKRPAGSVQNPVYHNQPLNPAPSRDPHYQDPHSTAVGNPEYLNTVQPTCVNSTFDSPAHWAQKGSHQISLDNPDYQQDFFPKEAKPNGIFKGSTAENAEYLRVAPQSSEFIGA
Outline: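 Serum-starved cells treated with compound 4 h at 37 °C, then stimulated with EGF (20 or 0 ng/ml solution added) in its continued presence. In-cell Western on fixed cells: phospho-EGFR (800 channel) normalised to total EGFR (700 channel), % inhibition calculated against EGF-stimulated and unstimulated no-compound wells.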

MDBK line = assay: MTT Cell Proliferation Assay, MDBK line; format: cell-based, bovine; conditions: Bos taurus, MDBK
Outline: as §1

[2] = A-431, 72 h, 72 h, first value of A431/MDBK pair, read-out: MTT-72 h A431
[3] = 72 h, second value of A431/MDBK pair, read-out: MTT-72 h MDBK
[4] = A-431, 10 point follow-up, first value of pair, read-out: MTT (10 Point follow-up) A431
[5] = 10 point follow-up, second value of pair, read-out: MTT (10 Point follow-up) MDBK

Row | Compound | IC50 [1, 2] [µM] | ICW Screen (EGFR) | IC50 [1, 4] [µM] | ICW Re-Test (EGFR) | MTT-72 h A431/MDBK (ratio) ([1]; 72 h) | IC50 (MDBK line; [3]) [µM] | MTT (10 Point follow-up) ratio [1] | IC50 (MDBK line; [5]) [µM] | MTT-72 h % Max ([1]; 72 h) [%]
1 | CCN1CCN(C(c2cccnc2)c2ccc3cccnc3c2O)CC1 (stereo not drawn) [compound 10550] | 9.59 | 31.84 | – | – | 0.79 | 7.6 | – | – | –
2 | CON1CCN(C(c2cccnc2)c2ccc3cccnc3c2O)CC1 (stereo not drawn) [compound 10551] | 20.1 | 29.14 | – | – | 0.57 | 11.4 | – | – | –
3 | Oc1c(C(Nc2nccs2)c2cccs2)ccc2cccnc12 (stereo not drawn) [compound 10602] | 3.56 | 57.72 | 3.3 | 43.06 | 0.65 | 2.31 | 0.71 | 2.35 | –
4 | Cc1cccc(NC(c2ccc(C(F)(F)F)cc2)c2ccc3cccnc3c2O)n1 (stereo not drawn) [compound 10628] | 0.32 | 30.02 | 0.311 | – | – | 0.76 | – | 0.689 | –
5 | Oc1cc2cccnc2cc1C(Nc1ccccn1)c1cccs1 (stereo not drawn) [compound 10938] | 25.3 | 40.36 | – | 24.99 | 0.88 | 22.1 | – | – | –
6 | COc1ccc(C(NC(=O)C2CCCCC2)c2cc([N+](=O)[O-])c3cccnc3c2O)cc1OC (stereo not drawn) [compound 10940] | 13.6 | 38.28 | 0.336 | 72.45 | 1.21 | 16.6 | 1.77 | 0.594 | 57
7 | CCOc1cc(C(NC(=O)C(C)(C)C)c2cc([N+](=O)[O-])c3cccnc3c2O)ccc1O (stereo not drawn) [compound 10941] | 5.92 | 27.61 | 1.12 | 67.81 | 1.02 | 6.05 | 1.56 | 1.75 | –
8 | CC(C)C(=O)NC(c1cccs1)c1cc([N+](=O)[O-])c2cccnc2c1O (stereo not drawn) [compound 10950] | 0.56 | 33.87 | 0.54 | 99.56 | 1.70 | 0.95 | 1.63 | 0.878 | –
9 | CCOc1cc(C(NC(C)=O)c2cc([N+](=O)[O-])c3cccnc3c2O)ccc1O (stereo not drawn) [compound 10951] | 5.58 | 38.95 | – | 31.33 | 0.97 | 5.44 | – | – | –
10 | Cc1cccc(NC(c2ccc(C)s2)c2ccc3ccc(C)nc3c2O)n1 (stereo not drawn) [compound 10952] | 10.5 | 49.39 | – | 43.94 | 0.74 | 7.77 | – | – | –
11 | Oc1c(C(Nc2ccccn2)c2ccsc2)ccc2cccnc12 (stereo not drawn) [compound 10957] | 17.5 | 49.8 | – | 39.03 | 0.80 | 14.1 | – | – | –
12 | CCCC(=O)NC(c1ccc(O)c(OCC)c1)c1cc([N+](=O)[O-])c2cccnc2c1O (stereo not drawn) [compound 10959] | 0.98 | 42.18 | 0.96 | 87.34 | 2.47 | 2.43 | 2.16 | 2.07 | –
13 | CCC(=O)NC(c1cccs1)c1cc([N+](=O)[O-])c2cccnc2c1O (stereo not drawn) [compound 10960] | 0.67 | 32.5 | 0.648 | 91.3 | 1.52 | 1.02 | 1.49 | 0.967 | –
14 | CCN(CC)c1ccc(C(Nc2ccccn2)c2ccc3cccnc3c2O)cc1 (stereo not drawn) [compound 10965] | 3.83 | 74.54 | – | 92.26 | 1.00 | 3.83 | – | – | –
15 | Cc1cccc(NC(c2cccc(C)n2)c2ccc3ccc(C)nc3c2O)n1 (stereo not drawn) [compound 10976] | 25.1 | 33.22 | – | 21.78 | 0.78 | 19.7 | – | – | –

Now from value to compound, other results behind:

Row | IC50 [1, 2] [µM] | ICW Screen (EGFR) | IC50 [1, 4] [µM] | ICW Re-Test (EGFR) | Compound | MTT-72 h A431/MDBK (ratio) ([1]; 72 h) | IC50 (MDBK line; [3]) [µM] | MTT (10 Point follow-up) ratio [1] | IC50 (MDBK line; [5]) [µM] | MTT-72 h % Max ([1]; 72 h) [%]
16 | 1.92 | 64.09 | – | 69.21 | Cc1ccc(NC(c2ccccc2)c2ccc3cccnc3c2O)cc1 (stereo not drawn) [compound 10664] | 1.12 | 2.14 | – | – | –
17 | 5.43 | 37.96 | – | 57 | CCOc1cc(C(Nc2cccnc2)c2ccc3cccnc3c2O)ccc1O (stereo not drawn) [compound 10936] | 1.05 | 5.68 | – | – | –
18 | 5.67 | 32.68 | – | 33.81 | Cc1ccnc(NC(c2ccccn2)c2ccc3cccnc3c2O)c1 (stereo not drawn) [compound 10939] | 1.20 | 6.78 | – | – | –
19 | 33.3 | 56.15 | – | 95.43 | Oc1c(C(Nc2cccnc2)c2ccc(C(F)(F)F)cc2)ccc2cccnc12 (stereo not drawn) [compound 10942] | 1.09 | 36.2 | – | – | –
20 | 1.31 | 44.28 | 1.25 | 68.79 | COc1ccc(Cl)cc1C(Nc1ccccn1)c1cc(Cl)c2cccnc2c1O (stereo not drawn) [compound 10943] | 1.60 | 2.1 | 1.50 | 1.88 | –
21 | 2.03 | 68.22 | 1.86 | 67.75 | Cc1ccc(C)c(C(Nc2cccnc2)c2cc(Cl)c3cccnc3c2O)c1 (stereo not drawn) [compound 10944] | – | 2.96 | – | 2.73 | –
22 | 2.79 | 82.22 | – | 81.41 | CCOc1ccc(C(Nc2cccnc2)c2cc(Cl)c3cccnc3c2O)cc1 (stereo not drawn) [compound 10945] | 0.67 | 1.87 | 0.76 | – | –
23 | 5.15 | 42.78 | – | 42.98 | O=[N+]([O-])c1cccc(C(Nc2cccnc2)c2cc(Cl)c3cccnc3c2O)c1 (stereo not drawn) [compound 10947] | 0.52 | 2.66 | – | – | –
24 | 8.87 | 44.24 | – | 30.99 | Cc1cccc(NC(c2ccccn2)c2ccc3ccc(C)nc3c2O)n1 (stereo not drawn) [compound 10948] | 1.34 | 11.9 | – | – | –
25 | 5.63 | 26.99 | – | – | CCCC(=O)NC(c1ccc(OC)c(OC)c1)c1cc(Cl)c2cccnc2c1O (stereo not drawn) [compound 10949] | 1.03 | 5.79 | – | – | –
26 | 5.42 | 30.86 | – | 41.04 | CCOc1ccc(C(Nc2ccccn2)c2cc(Cl)c3cccnc3c2O)cc1 (stereo not drawn) [compound 10953] | 1.03 | 5.56 | – | – | –
27 | 1.72 | 31.09 | 1.62 | – | Oc1c(C(Nc2ccccn2)c2ccccn2)cc(Cl)c2cccnc12 (stereo not drawn) [compound 10954] | 1.33 | 2.29 | 1.26 | 2.17 | –
28 | 5.5 | 37.33 | – | 53.58 | Oc1c(C(Nc2ccccn2)c2cccnc2)cc(Cl)c2cccnc12 (stereo not drawn) [compound 10955] | 0.97 | 5.36 | – | – | –
29 | 14.8 | 60.73 | – | 70.92 | Cc1ccc2ccc(C(Nc3ccccn3)c3sccc3C)c(O)c2n1 (stereo not drawn) [compound 10958] | 0.65 | 9.67 | – | – | –
30 | 32.4 | 94.69 | – | 71.58 | Cc1ccc2ccc(C(Nc3ccccn3)c3ccc(C)s3)c(O)c2n1 (stereo not drawn) [compound 10961] | 1.34 | 43.5 | – | – | 50
31 | 46 | 25.98 | – | 15.92 | Cc1ccc2ccc(C(Nc3ccccn3)c3cccnc3)c(O)c2n1 (stereo not drawn) [compound 10967] | 0.67 | 31 | – | – | –
32 | 11.1 | 27 | – | – | Cc1ccnc(NC(c2ccncc2)c2ccc3cccnc3c2O)c1 (stereo not drawn) [compound 10968] | 0.71 | 7.84 | – | – | –
33 | – | 30.17 | 0.51 | 73.15 | COc1ccc(C(NC(=O)c2cccnc2)c2cc(Cl)c3cccnc3c2O)cc1OC (stereo not drawn) [compound 10969] | – | – | 1.02 | 0.52 | –
34 | 4.19 | 50.44 | – | 44.13 | Cc1cccc(NC(c2ccncc2)c2ccc3cccnc3c2O)n1 (stereo not drawn) [compound 10974] | 1.14 | 4.77 | – | – | –
35 | 52.2 | 53.5 | – | 34.86 | Cc1cccc(NC(c2cccnc2)c2ccc3cccnc3c2O)n1 (stereo not drawn) [compound 10975] | 0.68 | 35.6 | – | – | –
